Results taken from US20080096933A1, “4-Pyridinylethylcarboxamide Derivatives Useful as Fungicides” (priority 2004, published 2008).

What was measured:
Botrytis cinerea = test: Effectiveness on Botrytis cinerea at 330 ppm; format: in vivo
Pyrenophora teres = test: In vivo test on Pyrenophora teres (barley net blotch); conditions: barley plants (Express variety), preventive spray, dose of 330 ppm, grading 12 days after contamination, in comparison with control plants
Description: In Vivo Test on Pyrenophora teres (Barley Net Blotch)
The active ingredient tested is prepared by potter homogenisation in a concentrated suspension type formulation at 100 g/l. This suspension is then diluted with water to obtain the desired active material concentration.
Barley plants (Express variety) in starter cups, sown on a 50/50 peat soil-pozzolana substrate and grown at 12° C., are treated at the 1-leaf stage (10 cm tall) by spraying with the aqueous suspension described above. Plants, used as controls, are treated with an aqueous solution not containing the active material.
After 24 hours, the plants are contaminated by spraying them with an aqueous suspension of Pyrenophora teres spores (12,000 spores per ml). The spores are collected from a 12-day-old culture The contaminated barley plants are incubated for 24 hours at about 20° C. and at 100% relative humidity, and then for 12 days at 80% relative humidity.
Grading is carried out 12 days after the contamination, in comparison with the control plants. Under these conditions, good (at least 50%) or total protection is observed at a dose of 330 ppm with the following compounds: A-1.

Alternaria brassicae = test: Effectiveness on Alternaria brassicae at 330 ppm; format: in vivo
Peronospora parasitica = test: Efficacy against Peronospora parasitica at 330 ppm; format: in vivo

SMILES	effectiveness on Botrytis cinerea (Botrytis cinerea)	protection (good (at least 50%) or total) (Pyrenophora teres)	effectiveness on Alternaria brassicae (Alternaria brassicae)	efficacy against Peronospora parasitica (Peronospora parasitica)
CCNC(=O)C(Cc1ncc(C(F)(F)F)cc1Cl)NC(=O)c1ccccc1 (stereo not shown) [compound 304, N-{1-ethylcarbamoyl-2-[3-chloro-5-(trifluoromethyl)-2-pyridinyl]ethyl}-benzamide]	zero effectiveness			
Cn1cc(C(=O)NCCc2c(F)c(F)nc(F)c2F)c(C(F)F)n1 [Compound A-1, 3-(difluoromethyl)-1-methyl-N-[2-(2,3,5,6-tetrafluoro-4-pyridinyl)ethyl]-1H-pyrazole-4-carboxamide]		at least 50%		
CCNC(=O)C(Cc1ncc(C(F)(F)F)cc1Cl)NC(=O)c1ccccc1Br (stereo not shown) [compound 310, N-{1-ethylcarbamoyl-2-[3-chloro-5-(trifluoromethyl)-2-pyridinyl]ethyl}-2-bromobenzamide]	zero effectiveness			
CNC(=O)C(Cc1ncc(C(F)(F)F)cc1Cl)NC(=O)c1ccc(-c2ccccc2)cc1 (stereo not shown) [compound 316, N-{1-methylcarbamoyl-2-[3-chloro-5-(trifluoromethyl)-2-pyridinyl]ethyl}-4-phenylbenzamide]	zero effectiveness		poor effectiveness	
CCNC(=O)C(Cc1ncc(C(F)(F)F)cc1Cl)NC(=O)c1ccc(Cl)cc1 (stereo not shown) [compound 306, N-{1-ethylcarbamoyl-2-[3-chloro-5-(trifluoromethyl)-2-pyridinyl]ethyl}-4-chlorobenzamide]	zero effectiveness			
CNC(=O)C(Cc1ncc(C(F)(F)F)cc1Cl)NC(=O)c1ccccc1 (stereo not shown) [compound 314, N-{1-methylcarbamoyl-2-[3-chloro-5-(trifluoromethyl)-2-pyridinyl]ethyl}-benzamide]	zero effectiveness			
CNC(=O)C(Cc1ncc(C(F)(F)F)cc1Cl)NC(=O)c1ccc(OC)cc1 (stereo not shown) [compound 315, N-{1-methylcarbamoyl-2-[3-chloro-5-(trifluoromethyl)-2-pyridinyl]ethyl}-4-methoxybenzamide]	zero effectiveness			
O=C(Cc1cccs1)NCc1ncc(C(F)(F)F)cc1Cl [compound 101, N-{[3-chloro-5-(trifluoromethyl)-2-pyridinyl]methyl}-5-thienylacetamide]	no efficacy		poor efficacy	no efficacy
CCNC(=O)C(Cc1ncc(C(F)(F)F)cc1Cl)NC(=O)c1cccc([N+](=O)[O-])c1 (stereo not shown) [compound 307, N-{1-ethylcarbamoyl-2-[3-chloro-5-(trifluoromethyl)-2-pyridinyl]ethyl}-3-nitrobenzamide]	zero effectiveness		poor effectiveness	
